The test system of one series is muscarinic receptors. Particulars: from prior publications and patents; cited from earlier work.
Another series has as its system smooth muscle. Particulars: from prior patents; cited from earlier work.
A further series deals with QTc interval. Put plainly: Effects on the QT-interval of the ECG. Particulars: guinea pig, in vivo. Also on record: species or system guinea pigs. On the procedure:
Anesthetized male guinea pigs (450–600 g) are used. The trachea is cannulated. Lead II electrocardiogram are recorded at 50 mm/sec. The is a 30 minute stabilization time after surgery, during which three baseline EKG recordings are made at 10-min intervals. Test article or vehicle are administered as an iv infusion over 30 min. ECG recordings are used to determine QT intervals and heart rates. To compensate for variations in heart rates, QTc intervals are calculated from QT- and RR-intervals as known to those skilled in the art. Prolongation of QTc is indicative of a prolonged action potential. Prolongation of QTc is a known cause of Torsades de Pointes ventricular fibrillation by drugs such as terodiline, terfenadine and astemizole (all of which have been withdrawn because of arrhythmogenic side effect).

The test system of another series is bladder hyperactivity. Particulars: cited from earlier work.

Structures are written as SMILES.

Consider `Cc1ccc(O)c(C(CCNC(C)C)c2ccccc2)c1` (centres unmarked) [DES-TOL], for which, in the series with muscarinic receptors, the “anticholinergic activity / inhibition of muscarinic receptors” value (from here on “anticholinergic activity / inhibition”) is “anticholinergic activity was further decreased”. In addition, the non-cholinergic spasmolytic activities entry with smooth muscle is “express non-cholinergic spasmolytic activities”.
With `CC(C)N(CC[C@H](c1ccccc1)c1cc(CO)ccc1O)C(C)C` [Example 5HM], the “anticholinergic activity / inhibition” value with muscarinic receptors was “potent and non-selective inhibition of muscarinic receptors”.
In the case of `Cc1ccc(O)c([C@H](CCN(C(C)C)C(C)C)c2ccccc2)c1` [Tolterodine, R—N,N-diisopropyl-3-(2-hydroxy-5-methylphenyl)-3-phenylpropylamine], in the series on QTc interval, the “delay of cardiac repolarization (prolongation of the QTc interval of the ECG)” value was “potently prolongs the QTc interval”. Besides, the “anticholinergic activity / inhibition” value in the series with muscarinic receptors is “potent and non-selective inhibition of muscarinic receptors”. The “bladder hyperactivity in patients suffering from urinary incontinence” value with bladder hyperactivity is on record as “reduce bladder hyperactivity”.
For the compound `Cc1ccc(O)c([C@@H](CCN(C(C)C)C(C)C)c2ccccc2)c1` [S-TOL], the “anticholinergic activity / inhibition” value in the series with muscarinic receptors is “little anticholinergic activity”. In the series with smooth muscle, the non-cholinergic spasmolytic activities entry is given as “express non-cholinergic spasmolytic activities”.
